Measured values: patent US8802623B2 (priority 2009, dated 2014)

Tests used:
IAV A/PR/8/34 [1] = system: IAV A/PR/8/34; design: species or system C57BL/6 mice; settings: mouse, in vivo
IAV A/PR/8/34 [2] = system: IAV A/PR/8/34; design: species or system C57BL/6 mice; settings: mouse, in vivo; remark: listed apart in the source
[3] = system: A549 cells infected with IAV A/PR/8/34; assay type: cell-based, human
[4] = mouse, in vivo
IAV A/PR/8/34 [5] = assay type: cell-based, IAV A/PR/8/34 (H1N1)

Compound: CC(C)c1ccc(Cn2ccc3c4c(N)nc(NC5CC5)nc4ccc32)cc1 [SCH79797]
- protection from IAV induced death, different concentrations (IAV A/PR/8/34 [1]): protected mice from IAV induced death in a dose-dependent manner
- protection from IAV-induced death at different pfu/mice (IAV A/PR/8/34 [1]): protected mice from IAV-induced death
- infectious virus load in lungs (IAV A/PR/8/34 [2]): significantly decreased infectious virus load

Compound: H-Thr-Phe-Leu-Leu-Arg-NH2 [TFLLR-NH2]
- IL-6 release [3]: significantly increased
- IL-8 release [3]: significantly increased
- RANTES release [3]: significantly increased
- IAV-induced death in mice (IAV A/PR/8/34 [1]): increased IAV-induced death
- side effect in uninfected mice (survival, weight) [4]: not sensitive
- virus production in IAV-infected A549 cells (IAV A/PR/8/34 [5]): produced more viruses
- infectious virus loads in lungs (IAV A/PR/8/34 [2]): significantly increased infectious virus loads
